# Laboratory results reported in US11197965B2, “Method and system for the administration of a pulmonary surfactant by atomization” (CHIESI FARMACEUTICI S.p.A., priority 2013, dated 2021).
# Details: in vivo
# Procedure: Old piglets, weighing between 0.8-2.0 kg, were used.
# The procedure was carried out as follows: piglets inhaled 10 mg of lidocaine and lidocaine gel was applied in the oropharynx just before the insertion of a Mayo oropharyngeal atomization cannula. The piglets were then laid on one side according to the randomization protocol, and correct positioning of the oropharyngeal cannula just above the larynx entrance was assessed by fiberbronchoscopy. Curosurf® was thoroughly mixed with 300 MBq of Tc-labeled nanocolloid and the animals received a total of 200 mg/kg Curosurf® (80 mg/mL) through an atomization catheter placed inside the oropharyngeal airway. The surfactant atomization procedure was divided in 4 stages (doses): each stage consisted in the delivery of one fourth of the total surfactant dose with the piglet breathing spontaneously on nasal-CPAP (via special “snout-mask”, see details in methods), followed by 5 minutes of PS-ventilation with PEEP (via snout-mask) to avoid atelectasis and promote delivery of the surfactant to the lower airways. When all the surfactant had been delivered, the oropharyngeal cannula was removed and the piglet received PS-ventilation for 15 min. FiO2 was adjusted to maintain saturation above 85%. To secure the airway under transportation to the gamma camera and scintigraphy, the animals were endotracheally intubated and manually ventilated with a Laerdal Silicone Resuscitator.
# The piglets were premedicated with i.m. ketamine, midazolam, and atropine, an ear vein was cannulated, and the animals were sedated with a continuous iv. infusion of dexmedetomedine and ketamine. Sedation was supplemented with small intermittent boluses of iv. propofol when needed. An arterial catheter was placed in the femoral artery under local anaesthesia. Invasive blood pressure, pulse oximetry, cerebral oximetry (INVOS), and the diaphragmatic electrical activity (NAVA catheter) were monitored in all animals.
# Group-assignment was random, and arranged so that pigs from the same litter were distributed evenly among the groups, when possible. […]
substance,measurement,setting,value
poractant alfa [Curosurf],amount of surfactant deposited into the lung compartment,,more than 61%
same,"percentage of surfactant deposited, pharynx (mean)",200 mg/kg,11.1 percentage
same,"percentage of surfactant deposited, trachea (mean)",200 mg/kg,13.5 percentage
